Results taken from patent publication US6623933B1 (priority 1999, dated 2003).
Where “and” joins values, the source holds several entries; their conditions need not be identical. Identical values can stand only once. Counter-ions that a name gives are not always drawn. Like-named read-outs stand apart in the source and are kept apart here.

Columns and labels:
[1] = target: T1, GluR1 AMPA receptor (Rattus norvegicus, UniProt P19490); experiment: Kainate-induced currents, Xenopus oocytes injected with GluR1 cRNA; assay type: cell-based
T1 construct: expressed in transfected cells; host or cells: Xenopus oocytes injected with GluR1 cRNA
Source text: (§1) Plasmids were obtained from the following individuals: Dr. Suzanne Zukin (Albert Einstein College of Medicine, Bronx, N.Y.), NR1100; Dr. Shigetada Nakanishi (Kyoto University Faculty of Medicine, Kyoto, Japan), NR2A; Dr. Stephen Heinemann (Salk Institute, San Diego, Calif.), GluR1 (flop), GluR3 (flop), and GluR6. Plasmids were linearized with BamH1 (NR1100), XhoI (NR2A, GluR1, GluR3) or XbaI (GluR6) prior to in vitro transcription with T3 (GluR1, GluR3, GluR6) or T7 (NR1100, NR2A) RNA polymerase using the Message Machine kit (Ambion, Austin, Tex.). […] RNA solutions (50-70 nl) were injected into oocytes for delivery of NR1100 (5 ng), NR1100:NR2A (1:10 ng), GluR1 (5 ng). GluR3 (5 ng), or GluR6 (20 ng). Oocytes were incubated in ND96 at 18-20° C. for 3-7 days prior to electrophysiological recording.
(§2) Steroid solutions were prepared as 70-100 mM frozen stocks in dimethyl sulfoxide (DMSO). The final DMSO concentration of all recording solutions was between 0.1% to 0.5% and was constant within an experiment.
(§3) Perfusion control and data acquisition were carried out using an automated oocyte electrophysiology workstation that was developed for the rapid collection of concentration-response data and real-time waveform analysis (Yaghoubi et al., Soc. Neurosci. Abstr. 20: 1109 (1995)). This system is implemented on a Macintosh IIci computer (Apple Computer, Cupertino, Calif.) equipped with MacA-DIOS II data acquisition and control hardware (GW Instruments, Somerville, Mass.). Drug application is controlled by the computer through a series of valves, using custom-written software based on the SuperScope II development environment, improving the efficiency and reproducibility of data collection. Experiments were carried out using an Axoclamp-2A voltage clamp amplifier (Axon Instruments, Foster City, Calif.) in two-electrode voltage clamp mode. Intracellular microelectrodes (1-3 MΩ) were filled with 3 M KCl. […] Membrane potential was clamped at −60 to −70 mV and stepped to −100 mV at the start of data acquisition unless otherwise stated. […] Current and voltage recordings were digitized at 100 Hz for analysis. GluR6 injected oocytes were treated for 10 min with 10 μg/ml concanavalin A to prevent fast desensitization.
(§4) Results are expressed as mean±S.E.M. Statistical comparisons were made using Student's t-test.

[2] = target: NR1/NR2B (NR1100) (Rattus norvegicus, UniProt P35439+Q00960)
Source text: (§8) Plasmids containing the NR1100 (NR1G) and NR2A cDNA inserts were kindly provided by Dr. Nakanishi (Kyoto University Faculty of Medicine, Kyoto, Japan). Plasmids containing the NR2B, NR2C and NR2D cDNA inserts were kindly provided by Dr. P. Seeburg (Heidelberg University, Heidelberg, Germany). Plasmids were linearized with appropriate restriction enzyme prior to in vitro transcription using the Message Machine kit (Ambion, Inc., Austin, Tex.).
(§9) Female, oocyte-positive Xenopus laevis frogs were purchased from Xenopus I (Dexter, Mich.). […] Oocytes were injected with 50 nL of RNA solutions using an electronic microinjector (Drummond Inc., Broomall, Pa.). […] The injected oocytes were used for experiments following 1-5 days of incubation in Barth's solution at 18-20° C.
(§10) The microelectrodes were fabricated from borosilicate glass capillaries with a programmed puller (Sutter Instrument Co., Calif.). Microelectrode resistance was 1-3 MΩ_when filled with 3 M KCl.
(§11) Except where otherwise stated, oocytes were clamped at a holding potential of −70 mV during data acquisition. The membrane current was filtered at 500 Hz and sampled at 100 Hz. Drugs were applied using a gravity-driven external perfusion system. The working volume of the recording chamber was 30 μl and the rate of the perfusion was 50 μl/sec. The drug application lasted 10 sec and was followed by 60 s wash. Data acquisition and external perfusion were controlled using custom-written software implemented in the SuperScope II development environment (GW Instruments, Mass.). All experiments were performed at room temperature of 22-24° C. Peak or steady-state current measurements were normalized and expressed as a fraction of the peak or steady-state control current measurements, which were performed before and after application of every single concentration of agonists or steroids.
(§12) Concentration-response data were analyzed by nonlinear regress ion using the logistic equation Response=Emax/(1+(EC50/c)^nH), where c is concentration, Emaxis the maximum response, nHis the Hill coefficient. The data are presented as mean±SEM. EC50values are averaged as logarithms (De Lean et al., Am. J. Physiol. 235: E97-E102 (1978))±the SEM of the log EC50. […] The pooled data were simultaneously fitted to the logistic equation, either with Emax and EC50 constrained to be identical in the presence and absence of PS, or allowing one or both to vary independently. […] This was regarded as indicating a significant treatment effect of PS, but the change in EC50and Emaxwas not considered significant. […] No attempt was made to test the generally small changes in nHfor statistical significance.

[3] = target: NR1100/NR2A (Rattus norvegicus, UniProt P35439+Q00959); design: agonist nHill / agonist Emax: dose or concentration left out as unconfirmed
[4] = target: T2, NR1111/NR2A (Rattus norvegicus, UniProt P35439+Q00959); experiment: NMDA-induced currents of NR1 splice variants, Xenopus oocytes, Example 4; assay type: cell-based; design: expressed in transfected cells; host or cells: Xenopus oocytes injected with NR1111 and NR2A mRNA; details: for NMDA nH / EC50 / maximum relative current (MRC) / percentage potentiation of the maximum NMDA response: NR1111/2A; for EC50: read-out: NMDA EC50
Experimental: (§5) Overnight cultures (500 ml) of transformed bacterial cells were prepared in order to grow sufficient quantities for maxiprep isolation of the plasmid CDNA. Maxipreps were done using a Sorvall RC-5B ultracentrifuge, Qiagen columns and cDNA was quantitated with spectrophotometry (OD260 and OD260/ OD280 ratio). The resulting plasmid cDNA was linearized by digestion with an appropriate restriction enzyme that cleaves distal to the cDNA insert (XhoI for NR2A or NotI for NR1100, NR1000, NR1111, NR1011, NR1101, NR1001). […] The samples were stored at −20° C. until use.
(§6) In vitro transcription was performed using the Ambion mMessage mMachine kit with T7 (NR1100, NR1000, NR1111, NR1011, NR1101, NR1001) RNA polymerase. The reaction was assembled on ice and allowed to incubate at 37° C. for 1-2 hr. The resulting mRNA was precipitated (reaction termination) using lithium chloride/5 mM EDTA solution and dissolved in RNase-free H2O. The concentration (OD260) and OD260/OD280 ratio (should be more than 1.5) was determined by spectrophotometer. The yield of mRNA was generally 15-30 μg. mRNA was stored at −80° C. until use.
(§7) Intracellular recording microelectrodes were fabricated from 100 μl borosilicate glass disposable micropipettes using a 2-step protocol on a standard horizontal Flaming-Brown micropipette puller.

[5] = target: T3, GluR6 kainate receptor (Rattus norvegicus, UniProt P42260); experiment: Kainate-induced currents, Xenopus oocytes injected with GluR6 cRNA; assay type: cell-based
T3 construct: expressed in transfected cells; host or cells: Xenopus oocytes injected with GluR6 cRNA (concanavalin A treated)
Source text: as §1, §2, §3, §4

[6] = target: NR1011/NR2A (Rattus norvegicus, UniProt P35439+Q00959); experiment: NMDA-induced currents of NR1 splice variants, Xenopus oocytes, Example 4; assay type: cell-based; design: expressed in transfected cells; host or cells: Xenopus oocytes injected with NR1011 and NR2A mRNA; details: for NMDA nH / EC50 / maximum relative current (MRC) / percentage potentiation of the maximum NMDA response: NR1011/2A; for EC50: read-out: NMDA EC50
Experimental: as §5, §6, §7

[7] = target: NR1/NR2D (NR1100) (Rattus norvegicus, UniProt P35439+Q62645)
Source text: as §8, §9, §10, §11, §12

[8] = target: T2, NR1111/NR2A; design: agonist Emax: dose or concentration left out as unconfirmed
[9] = pH 7.5, read-out: percentage inhibition of the maximum NMDA response
[10] = 100 μM PS, 200 μM NMDA+10 μM glycine, pH 7.5

T3 sequence (P42260 32-908): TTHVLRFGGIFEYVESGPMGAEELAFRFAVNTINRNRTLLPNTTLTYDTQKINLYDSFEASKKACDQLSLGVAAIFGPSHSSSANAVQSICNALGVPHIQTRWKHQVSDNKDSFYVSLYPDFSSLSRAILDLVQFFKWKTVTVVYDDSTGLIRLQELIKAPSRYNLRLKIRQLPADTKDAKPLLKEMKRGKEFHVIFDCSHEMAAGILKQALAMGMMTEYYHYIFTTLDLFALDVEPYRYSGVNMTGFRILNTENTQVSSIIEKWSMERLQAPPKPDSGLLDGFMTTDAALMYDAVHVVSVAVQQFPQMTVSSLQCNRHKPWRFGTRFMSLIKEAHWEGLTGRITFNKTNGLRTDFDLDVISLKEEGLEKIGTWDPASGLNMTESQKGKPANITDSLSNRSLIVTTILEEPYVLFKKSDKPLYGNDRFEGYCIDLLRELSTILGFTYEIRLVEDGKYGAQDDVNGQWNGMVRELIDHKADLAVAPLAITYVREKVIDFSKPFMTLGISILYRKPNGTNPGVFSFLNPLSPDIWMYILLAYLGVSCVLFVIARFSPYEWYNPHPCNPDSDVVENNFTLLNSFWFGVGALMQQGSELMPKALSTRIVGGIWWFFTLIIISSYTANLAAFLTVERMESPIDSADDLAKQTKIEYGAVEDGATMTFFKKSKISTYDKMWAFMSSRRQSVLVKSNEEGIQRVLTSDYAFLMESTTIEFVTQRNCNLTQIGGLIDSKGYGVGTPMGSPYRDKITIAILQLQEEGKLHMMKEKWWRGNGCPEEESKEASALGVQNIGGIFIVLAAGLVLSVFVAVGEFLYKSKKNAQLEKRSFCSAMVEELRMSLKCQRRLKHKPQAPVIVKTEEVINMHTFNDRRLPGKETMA
NR1/NR2D (NR1100), sequence (Q62645 28-1323, other chains not shown): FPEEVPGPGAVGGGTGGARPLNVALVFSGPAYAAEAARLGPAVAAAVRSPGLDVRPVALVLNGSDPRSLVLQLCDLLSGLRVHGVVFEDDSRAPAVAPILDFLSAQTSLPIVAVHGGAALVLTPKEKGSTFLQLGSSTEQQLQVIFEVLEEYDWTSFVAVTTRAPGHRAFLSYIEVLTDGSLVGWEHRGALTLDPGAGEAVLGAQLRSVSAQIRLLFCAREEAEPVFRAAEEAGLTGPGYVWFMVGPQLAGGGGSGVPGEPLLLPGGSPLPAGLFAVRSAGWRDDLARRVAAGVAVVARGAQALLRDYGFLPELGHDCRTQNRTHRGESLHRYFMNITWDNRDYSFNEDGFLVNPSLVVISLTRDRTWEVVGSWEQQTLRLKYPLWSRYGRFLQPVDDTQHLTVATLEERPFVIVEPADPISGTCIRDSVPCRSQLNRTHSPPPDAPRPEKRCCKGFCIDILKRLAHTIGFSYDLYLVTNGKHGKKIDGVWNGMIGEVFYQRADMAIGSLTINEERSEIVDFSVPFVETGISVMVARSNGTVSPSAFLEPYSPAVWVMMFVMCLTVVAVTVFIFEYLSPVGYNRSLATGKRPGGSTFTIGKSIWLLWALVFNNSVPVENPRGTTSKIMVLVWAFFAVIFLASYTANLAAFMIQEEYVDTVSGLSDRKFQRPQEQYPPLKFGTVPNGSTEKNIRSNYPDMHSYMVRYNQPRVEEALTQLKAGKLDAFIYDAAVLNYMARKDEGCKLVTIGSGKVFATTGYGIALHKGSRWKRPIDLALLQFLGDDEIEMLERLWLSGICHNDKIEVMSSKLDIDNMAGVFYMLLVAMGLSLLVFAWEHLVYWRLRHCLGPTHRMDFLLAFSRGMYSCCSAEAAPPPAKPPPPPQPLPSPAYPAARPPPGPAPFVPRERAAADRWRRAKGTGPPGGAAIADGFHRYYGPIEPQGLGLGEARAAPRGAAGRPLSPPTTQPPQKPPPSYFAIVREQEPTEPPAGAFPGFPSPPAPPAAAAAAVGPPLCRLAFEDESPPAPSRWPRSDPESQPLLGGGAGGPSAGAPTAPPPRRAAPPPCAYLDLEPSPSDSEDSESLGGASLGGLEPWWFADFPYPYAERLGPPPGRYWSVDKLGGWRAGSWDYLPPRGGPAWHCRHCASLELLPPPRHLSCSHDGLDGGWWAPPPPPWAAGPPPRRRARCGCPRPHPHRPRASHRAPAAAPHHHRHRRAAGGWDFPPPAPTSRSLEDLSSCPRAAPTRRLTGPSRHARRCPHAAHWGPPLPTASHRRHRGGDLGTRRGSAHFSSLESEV
NR1/NR2B (NR1100), sequence (Q00960 27-1482, other chains not shown): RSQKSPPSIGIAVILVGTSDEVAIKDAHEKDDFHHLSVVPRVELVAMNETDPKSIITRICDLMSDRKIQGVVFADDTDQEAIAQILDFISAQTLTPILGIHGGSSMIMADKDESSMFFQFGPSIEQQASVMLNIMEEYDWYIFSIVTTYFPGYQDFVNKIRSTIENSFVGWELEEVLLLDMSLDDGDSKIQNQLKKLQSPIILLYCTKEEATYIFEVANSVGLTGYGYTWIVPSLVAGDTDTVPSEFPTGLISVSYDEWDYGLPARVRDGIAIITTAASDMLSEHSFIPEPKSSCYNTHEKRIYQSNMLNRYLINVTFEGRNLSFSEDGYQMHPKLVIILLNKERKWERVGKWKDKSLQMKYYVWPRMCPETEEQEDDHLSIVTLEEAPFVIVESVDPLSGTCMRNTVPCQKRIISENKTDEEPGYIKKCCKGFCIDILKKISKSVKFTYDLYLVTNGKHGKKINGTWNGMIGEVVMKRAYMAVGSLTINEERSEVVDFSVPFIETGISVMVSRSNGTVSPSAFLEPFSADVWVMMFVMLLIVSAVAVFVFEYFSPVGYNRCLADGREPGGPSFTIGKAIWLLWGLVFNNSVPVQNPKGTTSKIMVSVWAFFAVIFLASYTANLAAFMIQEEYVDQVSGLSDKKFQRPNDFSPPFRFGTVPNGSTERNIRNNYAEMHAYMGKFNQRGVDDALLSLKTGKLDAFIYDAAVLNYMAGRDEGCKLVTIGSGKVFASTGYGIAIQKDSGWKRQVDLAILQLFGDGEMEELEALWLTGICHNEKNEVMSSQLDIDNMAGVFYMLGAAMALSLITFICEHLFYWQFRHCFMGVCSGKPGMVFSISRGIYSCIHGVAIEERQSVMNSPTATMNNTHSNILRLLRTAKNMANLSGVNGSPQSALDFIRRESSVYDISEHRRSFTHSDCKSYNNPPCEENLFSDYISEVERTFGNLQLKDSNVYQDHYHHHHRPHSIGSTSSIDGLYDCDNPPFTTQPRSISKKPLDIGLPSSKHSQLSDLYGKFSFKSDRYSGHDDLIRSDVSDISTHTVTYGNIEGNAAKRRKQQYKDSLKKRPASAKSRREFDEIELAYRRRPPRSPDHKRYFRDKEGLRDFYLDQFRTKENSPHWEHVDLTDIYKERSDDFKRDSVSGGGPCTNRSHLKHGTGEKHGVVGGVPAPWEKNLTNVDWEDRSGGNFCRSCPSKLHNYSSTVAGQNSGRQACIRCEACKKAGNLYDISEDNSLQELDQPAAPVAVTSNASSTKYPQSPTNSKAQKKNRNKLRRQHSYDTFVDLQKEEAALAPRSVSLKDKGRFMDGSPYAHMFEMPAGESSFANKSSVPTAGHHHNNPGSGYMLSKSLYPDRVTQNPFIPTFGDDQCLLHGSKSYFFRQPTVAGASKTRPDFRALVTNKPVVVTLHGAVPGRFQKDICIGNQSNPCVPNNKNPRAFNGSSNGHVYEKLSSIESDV
T2 sequence (Q00959 23-1464, other chains not shown): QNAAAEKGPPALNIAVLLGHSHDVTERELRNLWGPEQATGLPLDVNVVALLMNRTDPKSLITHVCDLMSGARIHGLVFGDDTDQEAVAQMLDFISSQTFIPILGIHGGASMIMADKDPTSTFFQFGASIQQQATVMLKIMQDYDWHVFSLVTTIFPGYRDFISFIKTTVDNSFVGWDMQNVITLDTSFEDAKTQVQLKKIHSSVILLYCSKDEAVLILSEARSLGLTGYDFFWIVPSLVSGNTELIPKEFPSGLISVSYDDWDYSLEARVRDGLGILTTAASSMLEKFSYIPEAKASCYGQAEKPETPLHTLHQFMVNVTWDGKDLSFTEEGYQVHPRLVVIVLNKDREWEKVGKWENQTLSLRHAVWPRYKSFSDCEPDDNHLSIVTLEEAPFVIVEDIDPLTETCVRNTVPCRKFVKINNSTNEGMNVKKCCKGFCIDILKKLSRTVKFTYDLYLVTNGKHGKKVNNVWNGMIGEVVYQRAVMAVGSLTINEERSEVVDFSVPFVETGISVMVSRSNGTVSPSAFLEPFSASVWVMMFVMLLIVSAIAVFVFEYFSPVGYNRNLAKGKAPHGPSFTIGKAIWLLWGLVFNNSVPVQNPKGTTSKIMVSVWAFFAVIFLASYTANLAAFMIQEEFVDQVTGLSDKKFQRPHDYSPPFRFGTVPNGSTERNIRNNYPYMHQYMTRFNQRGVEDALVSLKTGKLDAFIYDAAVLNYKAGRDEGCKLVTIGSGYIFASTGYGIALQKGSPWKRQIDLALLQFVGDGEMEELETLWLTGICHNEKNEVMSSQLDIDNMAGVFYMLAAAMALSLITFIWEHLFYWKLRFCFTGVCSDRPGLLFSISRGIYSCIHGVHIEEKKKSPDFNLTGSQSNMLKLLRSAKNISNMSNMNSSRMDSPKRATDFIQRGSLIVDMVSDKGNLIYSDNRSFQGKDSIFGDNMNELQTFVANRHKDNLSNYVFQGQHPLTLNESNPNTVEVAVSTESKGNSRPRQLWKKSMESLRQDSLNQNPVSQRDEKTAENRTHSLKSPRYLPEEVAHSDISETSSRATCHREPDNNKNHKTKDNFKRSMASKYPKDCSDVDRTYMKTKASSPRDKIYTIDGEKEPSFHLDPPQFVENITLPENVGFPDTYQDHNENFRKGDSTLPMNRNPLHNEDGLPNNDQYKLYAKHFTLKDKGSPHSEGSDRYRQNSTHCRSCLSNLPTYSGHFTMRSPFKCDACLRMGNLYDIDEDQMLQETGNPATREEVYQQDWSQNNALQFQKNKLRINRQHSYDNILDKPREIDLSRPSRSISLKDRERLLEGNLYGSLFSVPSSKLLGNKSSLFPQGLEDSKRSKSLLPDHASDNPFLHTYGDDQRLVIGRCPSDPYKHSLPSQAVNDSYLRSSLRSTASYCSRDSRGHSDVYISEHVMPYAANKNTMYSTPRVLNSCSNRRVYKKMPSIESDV

Molecule: CC(=O)[C@H]1CC[C@H]2[C@@H]3CC[C@@H]4C[C@H](OS(=O)(=O)O)CC[C@]4(C)[C@H]3CC[C@]12C [3α5βS, 3α5β-pregnanolone sulfate]
- Percentage change in kainate response [1]: −47 ± 12(3) %
- 3α5βS nH [2]: 1.06 ± 0.04
- maximum extent of inhibition by 3α5βS ([3]; NR1100/NR2A): 99±3%
- 3α5βS Emax ([3]; splice variant 100 /NR2A): −0.99 ± 0.03
- 3α5βS nHill ([3]; splice variant 100 /NR2A): 0.83 ± 0.02
- inhibition at 100 µM [4, 9]: 59%
- Percentage change in kainate response [5]: −34 ± 5(7) %
- inhibition at 100 µM [6, 9]: 56%
- 3α5βS nH [7]: 1.14 ± 0.16
- maximum extent of inhibition by 3α5βS ([8]; NR1111/NR2A): 75±7%
- 3α5βS Emax ([8]; splice variant 111 /NR2A): −0.75 ± 0.07
- 3α5βS nHill ([8]; splice variant 111 /NR2A): 1.09 ± 0.9

Molecule: CN[C@H](CC(=O)O)C(=O)O [NMDA, N-methyl-D-aspartate]
- agonist Emax ([2]; +100 μM PS): 1.47
- agonist nH ([2]; +100 μM PS): 1.32 ± 0.11
- agonist Emax ([2]; no PS): 1.00 ± 0.02
- agonist nH ([2]; no PS): 1.28 ± 0.08
- EC50 ([2]; read-out: agonist EC50, +100 μM PS): 12 µM
- agonist Emax ([3]; NR1100/NR2A, absence of PS): 1.36 ± 0.04
- agonist nHill ([3]; NR1100/NR2A, absence of PS): 1.13 ± 0.04
- agonist Emax ([3]; NR1100/NR2A, presence): (1.60 ± 0.07
- agonist nHill ([3]; NR1100/NR2A, presence): 1.20 ± 0.06
- NMDA nH ([4]; pH 7.5, +100 μM 3α5βS): 1.50
- NMDA nH ([4]; pH 7.5, +100 μM PS): 2.02
- NMDA nH ([4]; pH 7.5, control): 1.67
- NMDA nH ([4]; pH 8.5, +100 μM PS): 1.82
- NMDA nH ([4]; pH 8.5, control): 1.93
- EC50 ([4]; pH 7.5, +100 μM 3α5βS): 158 µM
- EC50 ([4]; pH 7.5, +100 μM PS): 89 µM
- EC50 ([4]; pH 7.5, control, 10 μM glycine): 103 µM
- EC50 ([4]; pH 8.5, +100 μM PS): 94 µM
- EC50 ([4]; pH 8.5, control): 110 µM
- NMDA nH ([6]; pH 7.5, +100 μM 3α5βS): 1.35
- NMDA nH ([6]; pH 7.5, +100 μM PS): 1.24
- NMDA nH ([6]; pH 7.5, control): 1.47
- NMDA nH ([6]; pH 8.5, +100 μM PS): 1.44
- NMDA nH ([6]; pH 8.5, control): 1.62
- EC50 ([6]; pH 7.5, +100 μM 3α5βS): 120 µM
- EC50 ([6]; pH 7.5, +100 μM PS): 67 µM
- EC50 ([6]; pH 7.5, control, 10 μM glycine): 71 µM
- EC50 ([6]; pH 8.5, +100 μM PS): 58 µM
- EC50 ([6]; pH 8.5, control): 94 µM
- agonist Emax ([7]; +100 μM PS): 0.71
- agonist nH ([7]; +100 μM PS): 1.17 ± 0.01
- agonist Emax ([7]; no PS): 1.02 ± 0.01
- agonist nH ([7]; no PS): 1.26 ± 0.09
- EC50 ([7]; read-out: agonist EC50, +100 μM PS, unit cell empty): 6.2 µM
- EC50 ([7]; read-out: agonist EC50, no PS): 8 µM
- agonist Emax ([8]; NR1111/NR2A, absence of PS): 1.34 ± 0.09
- agonist nHill ([8]; NR1111/NR2A, absence of PS): 1.49 ± 0.02
- agonist nHill ([8]; NR1111/NR2A, presence of 100 mM PS): 1.33 ± 0.22
- agonist Emax ([8]; NR1111/NR2A, presence of PS): (2.27 ± 0.07)

Molecule: pregnenolone sulfate [PS]
- PS Emax, percentage change in kainate-induced current ([1]; GluR1, 100 μM kainate): −99%
- inhibition of kainate response ([1]; GluR1, 200 μM PS): 85±4%
- reduction of kainate Imax ([1]; GluR1, PS 100 μM): 83%
- inhibition of the response to kainate ([1]; GluR1, steroid 100 μM): over 70%
- Percentage change in kainate response ([1]; GluR1, steroid 100 μM, 100 μM kainate, −100 mV): −85 ± 1(8) %
- PS nH [2]: 1.42 ± 0.11
- enhancement of NMDA-induced current ([2]; 100 μM PS, […] μM NMDA): 78±9%
- PS Emax (% Change) ([2]; […] μM NMDA, 10 μM glycine): +202 ± 10%
- Maximum potentiation of NMDA-induced current by PS ([3]; NR1100/NR2A): 1.67±0.07 fold
- PS Emax ([3]; NR1100/NR2A): 0.67 ± 0.07
- PS nHill ([3]; NR1100/NR2A): 1.33 ± 0.08
- maximum relative current (MRC) [4, 10]: 2.28
- maximum relative current (MRC) ([4]; 100 μM PS, pH 6.5): 4.06
- percentage potentiation of the maximum NMDA response ([4]; 100 μM PS, pH 7.5): 103%
- maximum relative current (MRC) ([4]; 100 μM PS, pH 8.5): 1.59 and 1.58
- percentage potentiation of the maximum NMDA response ([4]; 100 μM PS, pH 8.5): 47%
- difference in mrc between pH=6.5 and pH=7.5 ([4]; NR1111/NR2A, 100 μM PS): 1.8 fold
- difference in mrc between pH=7.5 and pH=8.5 ([4]; NR1111/NR2A, 100 μM PS): 1.4 fold
- PS nH, inhibition of kainate-induced current ([5]; GluR6, 10 μM kainate): 0.29
- inhibition of kainate response ([5]; GluR6, 500 μM PS): 64±2%
- reduction of kainate Imax ([5]; GluR6, PS 100 μM): 33%
- inhibition of the response to kainate ([5]; GluR6, steroid 100 μM): 42%
- Percentage change in kainate response ([5]; GluR6, steroid 100 μM, 10 μM kainate, −100 mV): −42 ± 3(8) %
- maximum relative current (MRC) [6, 10]: 1.41
- maximum relative current (MRC) ([6]; 100 μM PS, pH 6.5): 2.24
- percentage potentiation of the maximum NMDA response ([6]; 100 μM PS, pH 7.5): 50%
- maximum relative current (MRC) ([6]; 100 μM PS, pH 8.5): 1.35
- percentage potentiation of the maximum NMDA response ([6]; 100 μM PS, pH 8.5): 24%
- difference in mrc between pH=6.5 and pH=7.5 ([6]; NR1011/NR2A, 100 μM PS): 1.7 fold
- PS nH [7]: 1.16 ± 0.08
- PS Emax (% Change) ([7]; 10 μM NMDA, 10 μM glycine): −70 ± 6%
- inhibition of NMDA response ([7]; 100 μM PS, 10 μM NMDA): 26±1%
- Maximum potentiation of NMDA-induced current by PS ([8]; NR1111/NR2A): 1.51±0.04 fold
- PS nHill ([8]; NR1111/NR2A): 1.28 ± 0.19
- PS Emax ([8]; NR1111/NR2A, curve 1+Emax/(1+(EC50/c)n)): 0.51 ± 0.04
